From article PMC9814457 (2022) come the findings set out here.

This test concerns QDJ1 (model quadruplex-duplex junction) (DNA, G4) GGTTGGCGCGAAGCATTCGCGGGTTGG
Nature of the test: NMR ligand protection (53-compound library, HSQC difference). The note with it: 20 mM KCl; 20 mM K2HPO4, pH 7.0; 30 μM DNA.

Regarding `NCc1cc(CN)cc(CN)c1`, the binding result was “yes”.
